Measurements reported in patent publication US4533654A, “Urotensin peptides” (The Salk Institute For Biological Studies, priority 1984, dated 1985).
Read-outs that look alike come from different tables or passages of the source.

Tests used:
[1] = system: mesenteric vascular bed; test: Blood pressure and vascular dilatation in the monkey; format: in vivo; settings: for effect on blood pressure: appears due solely to dilatation of the mesenteric vascular bed
[2] = system: isolated mesenteric artery strips; test: Isolated mesenteric artery strips of the rat
[3] = Comparison of the two extracted and the two synthetic carp peptides (assay not specified); settings: synthetic versus extracted peptide
Method: (§1) In the pentobarbital-anaesthetized dog, the threshold dose of UI for mesenteric vasodilatation, when given close arterially into the cephalic mesenteric A, is between 0.001 and 0.01 μg for both carp UI (1-41) and for the 4-41 fragment of carp UI. Doses of 0.1-0.5 μg of both peptides produce a 50-150% increase in mesenteric flow; accompanying changes in blood pressure are very modest (about 10% decrease). […] Comp. Endocrinol. 45:446-452, 1981.

[4] = Biological activity (test not specified)
[5] = system: ACTH and β-END-LI secretion; test: ACTH and β-END-LI secretion in vivo in several rat preparations
Method: (§2) The urotensin peptides from Example II and III are examined for effects on the secretion of ACTH and β-endorphin in vitro and also examined in vivo. […] UI activity of the peptides was measured by the isolated rat hind limb assay, Lederis, K. et al. "Effects and Assay of Urotensin I on the Perfused Hind Limb of the Rat." Gen. Comp. Endocrinol., 24:10-16, 1974. In vivo hypotensive activity of extracted peptides was measured in anaesthetized rats, Lederis, K. and Medakovic, M. "Pharmacological Observations on the Hypotensive Action of Extracts of Teleost Fish Urophyses (Urotensin I) in the Rat." Br. J. Pharmacol. 51:315-324, 1974, and in anaesthetized dogs, MacCannell and Lederis, "Dilatation of the Mesenteric Vascular Bed of the Dog Produced by a Peptide, Urotensin I." J. Pharm. Exp. Ther. 203:38-46, 1977.

[6] = system: cultured rat pituitary cells; test: Secretion of ACTH and β-endorphin by cultured rat pituitary cells; format: cell-based; settings: for stimulation of the secretion of ACTH and β-endorphin: in vitro
Method: as §2

[7] = system: isolated rat hind limb; test: Isolated rat hind limb assay (UI activity)
Method: as §2, §1

[8] = system: mesenteric vascular bed; test: Blood pressure and mesenteric vasodilatation in the anaesthetized dog; format: in vivo; settings: for potency of synthetic peptide versus extracted and purified peptide: anaesthetized dog in vivo; for dilatation of vascular beds other than mesenteric / effect on blood pressure: dog; for effect on blood pressure: appears due solely to dilatation of the mesenteric vascular bed; for accompanying decrease in blood pressure / increase in mesenteric flow: pentobarbital-anaesthetized dog, doses of 0.1-0.5 μg
Method: as §2, §1

[9] = system: blood pressure; test: In vivo hypotensive activity in anaesthetized rats; settings: rat; vascular dilatation appears less selective
Method: as §2

[10] = system: teleost fish pituitaries; test: Secretion of ACTH by teleost fish pituitaries
Method: as §2

[11] = system: secretion of ACTH and β-endorphin; settings: reported in the literature; cited from earlier work
[12] = system: blood pressure; settings: mammals; reported in the literature; cited from earlier work
[13] = system: blood pressure; test: Lowering of blood pressure (summary statement, species not stated); format: in vivo

Compound	dilatation of vascular beds other than mesenteric [1]	effect on blood pressure [1]	potency of synthetic peptide versus extracted and purified peptide [2]	activity of synthetic peptide as % of the activity of the respective extracted carp UI peptide [3] [%]	potency to stimulate ACTH and β-endorphin secretion relative to amunine (CRF) [6]	potency of synthetic peptide versus extracted and purified peptide [7]	potency of synthetic peptide versus extracted and purified peptide [8]	dilatation of vascular beds other than mesenteric [8]	effect on blood pressure [8]	accompanying decrease in blood pressure [8]	increase in mesenteric flow [8]	effect on blood pressure [9]	potency relative to amunine in stimulating the secretion of ACTH [10]	other results
H-PPISIDLTFHLLRNMIEMARNENQREQAGLNRKYLDEV-NH2 [UI 4-41]	neither peptide dilates other vascular beds	modest but sustained depression of the blood pressure	equipotent with the extracted and purified peptides	123±58	comparable to amunine (CRF)	equipotent with the extracted and purified peptides	equipotent with the extracted and purified peptides	neither peptide dilates other vascular beds	modest but sustained depression of the blood pressure	about 10%	50-150%	more marked fall in blood pressure	several times more potent than amunine	biological activity [4]: substantially the same biological activity as the 41-residue polypeptide; stimulation of ACTH and β-END-LI secretion in vivo [5]: stimulate ACTH and β-END-LI secretion in vivo; stimulation of the secretion of ACTH and β-endorphin [6]: high potency
CC[C@H](C)[C@H](NC(=O)[C@@H](NC(=O)[C@H](CC(=O)O)NC(=O)[C@H](CC(C)C)NC(=O)[C@H](CC(C)C)NC(=O)[C@H](CC(C)C)NC(=O)[C@H](CCCNC(=N)N)NC(=O)[C@H](CC(N)=O)NC(=O)[C@H](CC(N)=O)NC(=O)[C@H](C)NC(=O)[C@H](C)NC(=O)[C@H](CCC(N)=O)NC(=O)[C@H](CCC(N)=O)NC(=O)[C@H](CCCCN)NC(=O)[C@H](CCC(=O)O)NC(=O)[C@H](CCCCN)NC(=O)[C@H](CCC(=O)O)NC(=O)[C@H](CCC(N)=O)NC(=O)[C@H](CCCCN)NC(=O)[C@H](CCC(=O)O)NC(=O)[C@@H](NC(=O)[C@H](CCC(=O)O)NC(=O)[C@@H](NC(=O)[C@H](CCSC)NC(=O)[C@H](CCCCN)NC(=O)[C@H](CCCNC(=N)N)NC(=O)[C@H](CC(C)C)NC(=O)[C@H](CC(C)C)NC(=O)[C@H](CCC(=O)O)NC(=O)[C@H](CC(C)C)NC(=O)[C@H](CO)NC(=O)[C@H](CC(C)C)NC(=O)[C@H](CC(=O)O)NC(=O)[C@@H](NC(=O)[C@H](CO)NC(=O)[C@@H](NC(=O)[C@@H]1CCCN1C(=O)[C@@H]1CCCN1C(=O)CNC(=O)[C@@H]1CCC(=O)N1)[C@@H](C)CC)[C@@H](C)CC)[C@@H](C)CC)[C@@H](C)CC)[C@@H](C)O)C(N)=O [Sauvagine]	–	–	–	–	–	–	–	–	–	–	–	–	–	stimulating the secretion of ACTH and β-endorphin [11]: stimulating the secretion of ACTH and β-endorphin; lowering blood pressure [12]: biological activity in lowering blood pressure in mammals
H-NDDPPISIDLTFHLLRNMIEMARNENQREQAGLNRKYLDEV-NH2 [carp UI (1-41)]	neither peptide dilates other vascular beds	modest but sustained depression of the blood pressure	equipotent with the extracted and purified peptides	119±19	comparable to amunine (CRF)	equipotent with the extracted and purified peptides	equipotent with the extracted and purified peptides	neither peptide dilates other vascular beds	modest but sustained depression of the blood pressure	about 10%	50-150%	more marked fall in blood pressure	several times more potent than amunine	stimulation of ACTH and β-END-LI secretion in vivo ([5]; listed as UI): stimulate ACTH and β-endorphin activities in vitro and in vivo; stimulation of ACTH and β-END-LI secretion in vivo ([5]; listed as urotensin I): stimulate ACTH and β-END-LI secretion in vivo; lowering of blood pressure [13]: lower blood pressure for an extended time period; stimulation of the secretion of ACTH and β-endorphin ([6]; listed as UI): stimulate ACTH and β-endorphin activities in vitro; stimulation of the secretion of ACTH and β-endorphin ([6]; listed as urotensin I): high potency
